Nine compounds from patent publication US8754242B2, “Herbicides” (Syngenta Crop Protection LLC, priority 2007, dated 2014) can be followed below.

Common to all, as to assay type: in vivo
Assay [1] deals with Alopecurus myosuroides (ALOMY). Put plainly: Test Example 1 pre-emergence herbicidal activity. To be noted: Alopecurus myosuroides, 480 h, rate 250 g/ha, evaluated 20 days later, read-out: Pre-emergence activity ALOMY (100=total damage to plant; 0=no damage to plant). As to the method: (§1) Monocotyledonous and dicotyledonous test plants were sown in standard soil in pots. After cultivation for one day (pre-emergence) or after 10 days cultivation (post-emergence) under controlled conditions in a glasshouse, the plants were sprayed with an aqueous spray solution derived from the formulation of the technical active ingredient in 0.6 ml acetone and 45 ml formulation solution containing 10.6% Emulsogen EL (Registry number 61791-12-6), 42.2% N-methylpyrrolidone, 42.2% dipropylene glycol monomethyl ether (Registry number 34590-94-8) and 0.2% X-77 (Registry number 11097-66-8). The test plants were then grown in a greenhouse under optimum conditions until, 15 days later for post-emergence and 20 days for pre-emergence, the test was evaluated (100=total damage to plant; 0=no damage to plant).
(§2) Alopecurus myosuroides (ALOMY), Avena fatua (AVEFA), Lolium perenne (LOLPE), Setaria faberi (SETFA), Digitaria sanguinalis (DIGSA), Echinochloa crus-galli (ECHCG)

For assay [2], the system named is Avena fatua (AVEFA). Put plainly: Test Example 1 pre-emergence herbicidal activity. To be noted: Avena fatua, 480 h, rate 250 g/ha, evaluated 20 days later, read-out: Pre-emergence activity AVEFA (100=total damage to plant; 0=no damage to plant). As to the method:
as §1, §2

In assay [3] the test system is Digitaria sanguinalis (DIGSA). Put plainly: Test Example 1 pre-emergence herbicidal activity. The following applies: Digitaria sanguinalis, 480 h, rate 250 g/ha, evaluated 20 days later, read-out: Pre-emergence activity DIGSA (100=total damage to plant; 0=no damage to plant). As for the experimental part: as §1, §2
Assay [4] deals with Echinochloa crus-galli (ECHCG). The assay is described as follows: Test Example 1 pre-emergence herbicidal activity. The following applies: Echinochloa crus-galli, 480 h, rate 250 g/ha, evaluated 20 days later, read-out: Pre-emergence activity ECHCG (100=total damage to plant; 0=no damage to plant). As for the experimental part: as §1, §2
Assay [5] relates to Lolium perenne (LOLPE). Put plainly: Test Example 1 pre-emergence herbicidal activity. The following applies: Lolium perenne, 480 h, rate 250 g/ha, evaluated 20 days later, read-out: Pre-emergence activity LOLPE (100=total damage to plant; 0=no damage to plant). As to the method:
as §1, §2

The subject of assay [6] is Setaria faberi (SETFA). Put plainly: Test Example 1 pre-emergence herbicidal activity. The following applies: Setaria faberi, 480 h, rate 250 g/ha, evaluated 20 days later, read-out: Pre-emergence activity SETFA (100=total damage to plant; 0=no damage to plant). As for the experimental part: as §1, §2
Assay [7] relates to Alopecurus myosuroides (ALOMY). The assay is described as follows: Test Example 1 post-emergence herbicidal activity. The following applies: 360 h, rate 125 g/ha, evaluated 15 days later, read-out: Post-emergence activity ALOMY (100=total damage to plant; 0=no damage to plant). As to the method:
as §1, §2

The subject of assay [8] is Avena fatua (AVEFA). Put plainly: Test Example 1 post-emergence herbicidal activity. The following applies: 360 h, rate 125 g/ha, evaluated 15 days later, read-out: Post-emergence activity AVEFA (100=total damage to plant; 0=no damage to plant). As to the method: as §1, §2
The subject of assay [9] is Digitaria sanguinalis (DIGSA). The assay is described as follows: Test Example 1 post-emergence herbicidal activity. The following applies: 360 h, rate 125 g/ha, evaluated 15 days later, read-out: Post-emergence activity DIGSA (100=total damage to plant; 0=no damage to plant). As to the method: as §1, §2
Assay [10] deals with Echinochloa crus-galli (ECHCG). Put plainly: Test Example 1 post-emergence herbicidal activity. To be noted: 360 h, rate 125 g/ha, evaluated 15 days later, read-out: Post-emergence activity ECHCG (100=total damage to plant; 0=no damage to plant). As to the method: as §1, §2
For assay [11], the system named is Lolium perenne (LOLPE). Put plainly: Test Example 1 post-emergence herbicidal activity. The following applies: 360 h, rate 125 g/ha, evaluated 15 days later, read-out: Post-emergence activity LOLPE (100=total damage to plant; 0=no damage to plant). As for the experimental part: as §1, §2
Assay [12] deals with Setaria faberi (SETFA). The assay is described as follows: Test Example 1 post-emergence herbicidal activity. The following applies: 360 h, rate 125 g/ha, evaluated 15 days later, read-out: Post-emergence activity SETFA (100=total damage to plant; 0=no damage to plant). As for the experimental part: as §1, §2

Regarding `CCc1cc(C)cc(CC)c1C1=C(OC(=O)C(C)(C)C)[C@H]2[C@@H](C1=O)[C@@H]1CC[C@H]2O1` (racemic) [Example P14], the pest or weed control at 250 g/ha (in [1]; with Avena fatua (AVEFA) [2]; in assay [3]; in [4]; with Lolium perenne (LOLPE) [5]; in the assay with Setaria faberi (SETFA) [6]) was 100% throughout. Further, the pest or weed control at 125 g/ha in [7] worked out at 90%; with Avena fatua (AVEFA) [8], 90%; in [9] it was 100%; in [10] it was 100%; in the assay on Lolium perenne (LOLPE) [11] it was 90%; in the assay on Setaria faberi (SETFA) [12] it was 100%.
With `CC#CCOC(=O)OC1=C(c2c(CC)cc(C)cc2CC)C(=O)[C@@H]2[C@H]1[C@H]1CC[C@@H]2O1` (racemic) [Example P15], the pest or weed control at 250 g/ha amounted to 80% in assay [1]; 90% with Avena fatua (AVEFA) [2]; 100% in [3]; 100% in assay [4]; 90% with Lolium perenne (LOLPE) [5]; 100% in the assay on Setaria faberi (SETFA) [6]. Further, the pest or weed control at 125 g/ha was 100% in assay [7]; 90% in the assay with Avena fatua (AVEFA) [8]; 80% in assay [9]; 100% in [10]; 90% in the assay on Lolium perenne (LOLPE) [11]; 80% with Setaria faberi (SETFA) [12].
For the compound `CCc1cc(C)cc(CC)c1C1=C(OC(=O)C2CCCCC2)[C@H]2[C@@H](C1=O)[C@@H]1CC[C@H]2O1` (racemic) [Example P17], the pest or weed control at 250 g/ha in assay [1] turned out to be 90%; in the assay on Avena fatua (AVEFA) [2] it was 90%; in [3] it was 100%; in [4], 100%; in the assay on Lolium perenne (LOLPE) [5], 100%; in the assay with Setaria faberi (SETFA) [6] it was 100%. Further, the pest or weed control at 125 g/ha in assay [7] was 100%; in the assay with Avena fatua (AVEFA) [8], 90%; in assay [9], 100%; in [10], 100%; in the assay on Lolium perenne (LOLPE) [11] it was 100%; with Setaria faberi (SETFA) [12] it was 100%.
As to `CCOC(=O)OC1=C(c2c(CC)cc(C)cc2CC)C(=O)[C@@H]2[C@H]1[C@H]1CC[C@@H]2O1` (racemic) [Example P18, carbonic acid (1RS,2SR,6RS,7SR)-5-oxo-4-(2,6-diethyl-4-methylphenyl)-10-oxatricyclo[5.2.1.0^2,6]-dec-3-en-3-yl ester ethyl ester], the pest or weed control at 250 g/ha (in assay [1]; in the assay with Avena fatua (AVEFA) [2]; in [3]; in [4]; in the assay with Lolium perenne (LOLPE) [5]; with Setaria faberi (SETFA) [6]) was 100% in each case. Further, the pest or weed control at 125 g/ha in [7] stood at 90%; in the assay on Avena fatua (AVEFA) [8], 50%; in assay [9], 70%; in assay [10] it was 100%; in the assay on Lolium perenne (LOLPE) [11], 80%; in the assay with Setaria faberi (SETFA) [12], 70%.
With `CCCCCCC(=O)OC1=C(c2c(CC)cc(C)cc2CC)C(=O)[C@@H]2[C@H]1[C@H]1CC[C@@H]2O1` (racemic) [Example P20], the pest or weed control at 250 g/ha in assay [1] is 100%; in the assay on Avena fatua (AVEFA) [2] it was 80%; in [3], 100%; in assay [4] it was 100%; in the assay with Lolium perenne (LOLPE) [5], 100%; in the assay with Setaria faberi (SETFA) [6] it was 100%. The pest or weed control at 125 g/ha in assay [7] came to 100%; in the assay with Avena fatua (AVEFA) [8], 100%; in [9] it was 80%; in assay [10], 100%; in the assay with Lolium perenne (LOLPE) [11], 100%; in the assay with Setaria faberi (SETFA) [12] it was 90%.
Take `CCc1cc(C)cc(CC)c1C1=C(OC(=O)C2CC2)[C@H]2[C@@H](C1=O)[C@@H]1CC[C@H]2O1` (racemic) [Example P21]: the pest or weed control at 250 g/ha (in assay [1]; with Avena fatua (AVEFA) [2]; in assay [3]; in assay [4]; in the assay on Lolium perenne (LOLPE) [5]; in the assay on Setaria faberi (SETFA) [6]) was 100% in each case. For the same compound, the pest or weed control at 125 g/ha in [7] is 90%; in the assay with Avena fatua (AVEFA) [8], 100%; in [9], 80%; in [10], 100%; in the assay on Lolium perenne (LOLPE) [11], 100%; in the assay on Setaria faberi (SETFA) [12] it was 100%.
On to `CCC(=O)OC1=C(c2c(CC)cc(C)cc2CC)C(=O)[C@@H]2[C@H]1[C@H]1CC[C@@H]2O1` (racemic) [Example P22], for which the pest or weed control at 250 g/ha (in assay [1]; in the assay with Avena fatua (AVEFA) [2]; in assay [3]; in assay [4]; in the assay on Lolium perenne (LOLPE) [5]; with Setaria faberi (SETFA) [6]) was 100% throughout. Also, the pest or weed control at 125 g/ha (in [7]; in the assay with Avena fatua (AVEFA) [8]; in [9]; in [10]; with Lolium perenne (LOLPE) [11]; in the assay with Setaria faberi (SETFA) [12]) was 100% each time.
Take `C#CCOC(=O)OC1=C(c2c(CC)cc(C)cc2CC)C(=O)[C@@H]2[C@H]1[C@H]1CC[C@@H]2O1` (racemic) [Example P25]: the pest or weed control at 250 g/ha (in [1]; in the assay on Avena fatua (AVEFA) [2]; in [3]; in assay [4]; with Lolium perenne (LOLPE) [5]; with Setaria faberi (SETFA) [6]) was 100% throughout. The pest or weed control at 125 g/ha in assay [7] turned out to be 100%; in the assay on Avena fatua (AVEFA) [8], 90%; in assay [9], 80%; in [10] it was 100%; in the assay with Lolium perenne (LOLPE) [11], 100%; in the assay on Setaria faberi (SETFA) [12], 80%.
For `C#CCOC(=O)OC1=C(c2c(C)cc(C)cc2C)C(=O)[C@@H]2[C@H]1[C@@]1(C)CC[C@]2(C)O1` (racemic) [Example P36], the pest or weed control at 250 g/ha in assay [1] turned out to be 70%; in the assay on Avena fatua (AVEFA) [2], 80%; in assay [3], 80%; in [4], 100%; in the assay with Lolium perenne (LOLPE) [5], 100%; in the assay on Setaria faberi (SETFA) [6], 80%. In addition, the pest or weed control at 125 g/ha in [7] is 60%; in the assay with Avena fatua (AVEFA) [8], 70%; in [9], 80%; in [10], 90%; in the assay on Lolium perenne (LOLPE) [11] it was 60%; in the assay with Setaria faberi (SETFA) [12], 80%.
